Experimental data reported in patent US20230114107A1, “COMBINATION ANTI-CANCER THERAPIES WITH INDUCERS OF IRON-DEPENDENT CELLULAR DISASSEMBLY” (Flagship Pioneering Innovations V, Inc., priority 2019, published 2023).

System: NFKB reporter in THP1-Dual cells
Experiment: NFKB reporter activity in THP1-Dual monocytes co-cultured with treated Caki-1 cells
Assay type: cell-based, human
Procedure: Caki-1 renal cell carcinoma cells were treated with either control (DMSO) or various doses of Erastin, for 24 hours prior to co-culture with THP1-Dual cells for an additional 24 hours. Erastin was purchased from Selleckchem (Houston, Tex.) and dissolved in DMSO. Subsequently, the THP1 supernatants were assessed for NFKB or IRF reporter activity. Caki-1 cells were acquired from ATCC and THP1-Dual cells acquired from InvivoGen (San Diego, Calif.). Both cell types were cultured in 96-well plates for the duration of the assay. 7,500 Caki-1 cells were plated 24 hours prior to dosing with Erastin, with a final DMSO concentration of 0.5%. 24 hours post-treatment, THP1-Dual cells (25,000 cells/well) were added to the Caki-1 cells. 24 hours later, 30 μl of supernatant was mixed with either 200 μl QuantiBlue (InvivoGen) or 50 μl QuantiLuc and absorbance or luminescence was recorded on a Molecular Devices plate reader. Caki-1 renal cell carcinoma cells were treated with either control (DMSO) or various doses of RSL3, for 24 hours prior to co-culture with THP1-Dual cells for an additional 24 hours. RSL3 was purchased from Selleckchem and dissolved in DMSO. Subsequently, the THP1 supernatants were assessed for NFKB or IRF reporter activity. Caki-1 cells were acquired from ATCC and THP1-Dual cells acquired from InvivoGen (San Diego, Calif.). Both cell types were cultured in 96-well plates for the duration of the assay. 7,500 Caki-1 cells were plated 24 hours prior to dosing with RSL3, with a final DMSO concentration of 0.5%. 24 hours post-treatment, THP1-Dual cells (25,000 cells/well) were added to the Caki-1 cells. 24 hours later, 30 μl of supernatant was mixed with either 200 μl QuantiBlue (InvivoGen, San Diego, Calif.) or 50 μl QuantiLuc and absorbance or luminescence was recorded on a Molecular Devices plate reader. […] Subsequently, the THP1 supernatant was assessed for NFKB reporter activity. Caki-1 cells were acquired from ATCC and THP1-Dual cells acquired from InvivoGen (San Diego, Calif.). Both cell types were cultured in 96-well plates for the duration of the assay.

SMILES: COC(=O)c1ccc([C@H]2c3[nH]c4ccccc4c3C[C@H](C(=O)OC)N2C(=O)CCl)cc1 [RSL3]
- NFKB signaling in THP1 monocytes (Caki-1 cells treated 24 hours, co-culture 24 hours, vs DMSO, FIG. 3B, 4B): elicited NFKB signaling in THP1 monocytes
- NFKB activity in THP1 cells, dose dependence (Caki-1 cells treated with RSL3 or ML162, FIG. 13B, 14B): increased NFKB activity in THP1 cells in a dose dependent manner
